Source: publication doi:10.1101/2023.03.24.534094v2 (biorxiv, 2023)
Read-outs that look alike come from different tables or passages of the source.

How the values were obtained:
Test in all cases: biochemical
FLT1 = FLT1 (Homo sapiens, UniProt P17948)
BRAF = BRAF (Homo sapiens, UniProt P15056)
MARK4 = biological target: T1, MARK4 (Homo sapiens, UniProt Q96L34)
T1 sequence (Q96L34 1-752): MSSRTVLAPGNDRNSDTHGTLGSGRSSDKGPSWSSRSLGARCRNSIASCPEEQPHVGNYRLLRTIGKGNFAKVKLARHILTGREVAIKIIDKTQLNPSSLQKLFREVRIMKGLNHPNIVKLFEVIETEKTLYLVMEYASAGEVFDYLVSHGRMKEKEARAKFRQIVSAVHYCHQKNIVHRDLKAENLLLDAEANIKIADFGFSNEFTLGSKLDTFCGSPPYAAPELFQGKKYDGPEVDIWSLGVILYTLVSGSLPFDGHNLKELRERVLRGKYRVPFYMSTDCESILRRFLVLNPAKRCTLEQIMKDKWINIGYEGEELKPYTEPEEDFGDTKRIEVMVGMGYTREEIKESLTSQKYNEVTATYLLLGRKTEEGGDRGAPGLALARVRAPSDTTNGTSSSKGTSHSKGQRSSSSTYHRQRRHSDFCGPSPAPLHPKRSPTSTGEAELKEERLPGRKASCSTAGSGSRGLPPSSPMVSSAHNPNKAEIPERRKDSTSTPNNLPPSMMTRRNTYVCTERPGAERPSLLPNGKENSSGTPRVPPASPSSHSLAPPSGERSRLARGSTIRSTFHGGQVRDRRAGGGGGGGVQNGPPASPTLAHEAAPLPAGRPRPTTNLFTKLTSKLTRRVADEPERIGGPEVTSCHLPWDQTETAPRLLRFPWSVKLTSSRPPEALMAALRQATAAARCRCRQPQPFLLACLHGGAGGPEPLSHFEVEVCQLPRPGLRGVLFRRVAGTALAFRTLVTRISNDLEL

CaMK2d = CaMK2d (Homo sapiens, UniProt Q13557)
CLK3 = CLK3 (Homo sapiens, UniProt P49761)
CLK3, sequence (P49761 whole entry): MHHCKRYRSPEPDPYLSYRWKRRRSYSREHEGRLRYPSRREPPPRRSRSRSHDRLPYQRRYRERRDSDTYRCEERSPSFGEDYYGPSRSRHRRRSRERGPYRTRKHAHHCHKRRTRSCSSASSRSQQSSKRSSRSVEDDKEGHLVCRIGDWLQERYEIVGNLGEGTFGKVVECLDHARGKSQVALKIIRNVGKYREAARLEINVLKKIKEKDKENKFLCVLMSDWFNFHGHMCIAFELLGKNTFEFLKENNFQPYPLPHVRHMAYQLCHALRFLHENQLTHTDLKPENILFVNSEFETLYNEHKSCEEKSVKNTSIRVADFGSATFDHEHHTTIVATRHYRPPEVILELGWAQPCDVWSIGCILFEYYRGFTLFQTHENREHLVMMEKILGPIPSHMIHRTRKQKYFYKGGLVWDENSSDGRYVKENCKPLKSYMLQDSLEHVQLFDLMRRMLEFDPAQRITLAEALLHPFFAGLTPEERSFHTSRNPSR

PIM1 = PIM1 (Homo sapiens, UniProt P11309)
PIM1, sequence (P11309 whole entry): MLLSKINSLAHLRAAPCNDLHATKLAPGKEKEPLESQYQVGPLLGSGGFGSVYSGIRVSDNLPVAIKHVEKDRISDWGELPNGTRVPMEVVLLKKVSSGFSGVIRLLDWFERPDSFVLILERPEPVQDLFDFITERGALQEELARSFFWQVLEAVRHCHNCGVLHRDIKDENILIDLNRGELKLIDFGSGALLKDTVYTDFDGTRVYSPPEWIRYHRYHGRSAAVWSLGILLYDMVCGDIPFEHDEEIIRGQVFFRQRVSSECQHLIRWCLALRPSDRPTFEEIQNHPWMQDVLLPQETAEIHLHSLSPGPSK

PCTAIRE1 = PCTAIRE1 (Homo sapiens, UniProt Q00536)
TAF1 = TAF1 (Homo sapiens, UniProt P21675)
TAF1, sequence (P21675 whole entry): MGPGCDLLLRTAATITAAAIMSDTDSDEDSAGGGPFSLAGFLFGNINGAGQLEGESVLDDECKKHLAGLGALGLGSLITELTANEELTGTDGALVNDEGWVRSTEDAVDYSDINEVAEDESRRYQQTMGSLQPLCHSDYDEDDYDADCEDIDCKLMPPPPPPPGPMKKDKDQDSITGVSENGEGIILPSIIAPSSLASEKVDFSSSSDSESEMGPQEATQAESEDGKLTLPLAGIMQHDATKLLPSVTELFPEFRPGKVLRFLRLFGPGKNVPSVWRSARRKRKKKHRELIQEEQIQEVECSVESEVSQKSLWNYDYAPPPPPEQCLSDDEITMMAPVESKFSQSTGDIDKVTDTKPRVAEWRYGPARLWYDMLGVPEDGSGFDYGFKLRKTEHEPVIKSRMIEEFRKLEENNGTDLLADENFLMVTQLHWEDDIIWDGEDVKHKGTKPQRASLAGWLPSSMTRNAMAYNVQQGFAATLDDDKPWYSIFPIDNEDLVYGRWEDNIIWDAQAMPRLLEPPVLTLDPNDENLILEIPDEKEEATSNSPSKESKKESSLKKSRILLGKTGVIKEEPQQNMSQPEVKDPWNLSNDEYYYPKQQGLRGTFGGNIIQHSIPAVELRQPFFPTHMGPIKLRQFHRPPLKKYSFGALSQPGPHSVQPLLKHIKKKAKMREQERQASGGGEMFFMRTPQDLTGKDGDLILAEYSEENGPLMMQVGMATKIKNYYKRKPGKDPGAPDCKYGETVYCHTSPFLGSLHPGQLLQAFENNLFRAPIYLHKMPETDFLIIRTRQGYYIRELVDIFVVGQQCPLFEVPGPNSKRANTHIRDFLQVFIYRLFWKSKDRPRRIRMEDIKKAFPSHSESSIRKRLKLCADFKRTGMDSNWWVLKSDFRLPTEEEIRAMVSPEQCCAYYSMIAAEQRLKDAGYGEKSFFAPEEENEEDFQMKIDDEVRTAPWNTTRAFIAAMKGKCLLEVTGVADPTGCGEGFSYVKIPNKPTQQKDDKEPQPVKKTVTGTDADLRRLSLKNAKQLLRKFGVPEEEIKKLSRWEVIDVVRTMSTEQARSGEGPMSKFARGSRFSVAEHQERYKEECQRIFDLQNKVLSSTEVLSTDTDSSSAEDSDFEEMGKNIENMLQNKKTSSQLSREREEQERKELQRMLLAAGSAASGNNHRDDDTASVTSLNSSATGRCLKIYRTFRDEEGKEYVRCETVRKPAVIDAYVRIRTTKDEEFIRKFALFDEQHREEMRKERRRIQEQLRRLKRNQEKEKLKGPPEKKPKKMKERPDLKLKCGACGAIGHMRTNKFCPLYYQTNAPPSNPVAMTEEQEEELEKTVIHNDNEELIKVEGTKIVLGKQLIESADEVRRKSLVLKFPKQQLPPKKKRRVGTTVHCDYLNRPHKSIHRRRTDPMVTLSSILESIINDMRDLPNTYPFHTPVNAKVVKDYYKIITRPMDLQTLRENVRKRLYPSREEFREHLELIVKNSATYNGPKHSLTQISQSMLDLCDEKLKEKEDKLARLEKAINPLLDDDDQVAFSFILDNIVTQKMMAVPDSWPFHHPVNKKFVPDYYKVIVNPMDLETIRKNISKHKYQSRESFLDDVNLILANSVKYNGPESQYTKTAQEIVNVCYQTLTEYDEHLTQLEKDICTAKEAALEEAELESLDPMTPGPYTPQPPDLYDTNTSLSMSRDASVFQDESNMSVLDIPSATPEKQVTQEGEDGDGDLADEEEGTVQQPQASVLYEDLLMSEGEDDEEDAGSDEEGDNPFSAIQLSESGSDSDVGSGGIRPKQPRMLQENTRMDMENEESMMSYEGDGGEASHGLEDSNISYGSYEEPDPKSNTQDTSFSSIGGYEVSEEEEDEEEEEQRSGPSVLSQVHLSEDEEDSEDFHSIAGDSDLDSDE

DAPK3 = DAPK3 (Homo sapiens, UniProt O43293)
DAPK3, sequence (O43293 whole entry): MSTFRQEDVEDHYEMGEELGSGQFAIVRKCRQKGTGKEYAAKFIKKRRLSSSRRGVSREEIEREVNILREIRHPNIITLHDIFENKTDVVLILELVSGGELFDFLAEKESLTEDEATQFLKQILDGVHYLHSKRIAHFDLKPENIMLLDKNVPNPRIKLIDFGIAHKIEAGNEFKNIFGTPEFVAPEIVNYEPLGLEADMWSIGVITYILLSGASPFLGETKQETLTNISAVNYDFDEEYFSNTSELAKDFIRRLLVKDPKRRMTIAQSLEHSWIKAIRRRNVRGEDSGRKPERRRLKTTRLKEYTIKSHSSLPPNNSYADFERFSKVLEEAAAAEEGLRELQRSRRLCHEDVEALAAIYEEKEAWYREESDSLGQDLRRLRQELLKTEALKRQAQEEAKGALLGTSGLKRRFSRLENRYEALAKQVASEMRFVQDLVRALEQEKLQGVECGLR

PHKG2 = biological target: T2, PHKG2 (Homo sapiens, UniProt P15735)
T2 sequence (P15735 1-406): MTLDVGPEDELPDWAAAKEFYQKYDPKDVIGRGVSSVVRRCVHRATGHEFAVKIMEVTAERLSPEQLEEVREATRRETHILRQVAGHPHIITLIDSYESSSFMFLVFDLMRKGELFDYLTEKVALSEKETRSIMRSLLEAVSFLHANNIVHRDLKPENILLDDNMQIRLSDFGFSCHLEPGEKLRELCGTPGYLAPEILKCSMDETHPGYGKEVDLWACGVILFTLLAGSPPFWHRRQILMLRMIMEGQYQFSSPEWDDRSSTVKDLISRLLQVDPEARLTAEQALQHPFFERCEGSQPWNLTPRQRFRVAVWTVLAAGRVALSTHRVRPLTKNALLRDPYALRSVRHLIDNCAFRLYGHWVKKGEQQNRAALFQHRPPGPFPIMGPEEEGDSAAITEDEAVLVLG

EphA7 = EphA7 (Homo sapiens, UniProt Q15375)
EphA7, sequence (Q15375 whole entry): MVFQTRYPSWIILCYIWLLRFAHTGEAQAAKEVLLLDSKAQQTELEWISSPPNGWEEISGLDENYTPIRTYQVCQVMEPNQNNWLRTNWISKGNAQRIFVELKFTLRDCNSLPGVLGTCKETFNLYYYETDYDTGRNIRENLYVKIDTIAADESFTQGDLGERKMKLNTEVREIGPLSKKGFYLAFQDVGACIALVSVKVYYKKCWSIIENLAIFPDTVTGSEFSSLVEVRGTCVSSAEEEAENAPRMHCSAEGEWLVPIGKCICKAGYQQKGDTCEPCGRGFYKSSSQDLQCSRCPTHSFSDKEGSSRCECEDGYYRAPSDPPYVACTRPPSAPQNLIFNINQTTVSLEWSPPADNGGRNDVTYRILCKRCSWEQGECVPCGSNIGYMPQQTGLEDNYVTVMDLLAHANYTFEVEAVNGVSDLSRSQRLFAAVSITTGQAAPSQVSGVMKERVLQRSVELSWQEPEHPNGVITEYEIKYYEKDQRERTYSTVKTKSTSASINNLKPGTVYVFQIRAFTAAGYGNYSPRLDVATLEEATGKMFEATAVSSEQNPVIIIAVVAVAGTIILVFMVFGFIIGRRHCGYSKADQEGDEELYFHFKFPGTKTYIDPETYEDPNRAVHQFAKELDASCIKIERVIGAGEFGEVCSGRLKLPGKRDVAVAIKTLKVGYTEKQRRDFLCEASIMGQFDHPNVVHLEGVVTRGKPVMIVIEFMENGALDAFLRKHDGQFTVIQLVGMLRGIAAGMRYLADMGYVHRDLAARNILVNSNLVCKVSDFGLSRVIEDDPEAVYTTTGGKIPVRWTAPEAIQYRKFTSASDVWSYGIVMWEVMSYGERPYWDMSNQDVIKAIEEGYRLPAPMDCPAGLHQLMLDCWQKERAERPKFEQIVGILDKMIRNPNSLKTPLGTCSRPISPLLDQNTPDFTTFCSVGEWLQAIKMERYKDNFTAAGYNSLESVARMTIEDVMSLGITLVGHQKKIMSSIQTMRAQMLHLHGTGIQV

HIPK2 = HIPK2 (Homo sapiens, UniProt Q9H2X6)

BRAF, sequence (P15056 whole entry): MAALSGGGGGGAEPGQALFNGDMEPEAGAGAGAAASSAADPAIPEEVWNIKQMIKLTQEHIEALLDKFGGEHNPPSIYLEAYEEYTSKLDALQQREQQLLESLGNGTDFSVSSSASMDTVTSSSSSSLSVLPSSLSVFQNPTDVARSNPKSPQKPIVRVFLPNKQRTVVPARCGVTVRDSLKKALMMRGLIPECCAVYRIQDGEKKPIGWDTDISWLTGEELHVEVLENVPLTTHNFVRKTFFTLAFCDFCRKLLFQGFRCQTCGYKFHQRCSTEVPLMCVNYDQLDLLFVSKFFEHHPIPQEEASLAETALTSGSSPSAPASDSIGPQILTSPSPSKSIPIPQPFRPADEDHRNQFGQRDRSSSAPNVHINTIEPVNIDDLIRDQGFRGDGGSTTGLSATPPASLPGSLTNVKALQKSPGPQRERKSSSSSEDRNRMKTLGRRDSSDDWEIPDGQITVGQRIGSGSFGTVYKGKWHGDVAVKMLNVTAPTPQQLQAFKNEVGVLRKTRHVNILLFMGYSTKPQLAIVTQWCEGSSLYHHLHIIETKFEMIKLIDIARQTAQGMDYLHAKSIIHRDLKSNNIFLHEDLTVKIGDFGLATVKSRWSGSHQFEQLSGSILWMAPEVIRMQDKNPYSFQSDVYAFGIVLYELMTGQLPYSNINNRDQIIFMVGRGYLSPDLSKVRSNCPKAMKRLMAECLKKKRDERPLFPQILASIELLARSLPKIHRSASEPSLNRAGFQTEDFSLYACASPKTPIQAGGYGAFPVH

**Q.** What does the source list for `CNc1ncc2cc(-c3cc(Cl)ccc3Br)c(=O)n(CCCCN)c2n1` [compound 10, 8-(4-Aminobutyl)-6-(2-bromo-5-chlorophenyl)-2-(methylamino)pyrido[2,3-d]pyrimidin-7(8H)-one]?
**A.** ΔTm at 10 µM (FLT1; read-out: dTm 10): 5 °C; ΔTm at 10 µM (BRAF; read-out: dTm 10): 11.4 °C; ΔTm at 10 µM (MARK4; read-out: dTm 10): 1.7 °C; ΔTm at 10 µM (CaMK2d; read-out: dTm 10): 0.5 °C; ΔTm at 10 µM (CLK3; read-out: dTm 10): 0.4 °C; ΔTm at 10 µM (PIM1; read-out: dTm 10): 0.8 °C; ΔTm at 10 µM (PCTAIRE1; read-out: dTm 10): 0.6 °C; ΔTm at 10 µM (TAF1; read-out: dTm 10): -0.8 °C; ΔTm at 10 µM (DAPK3; read-out: dTm 10): 0.1 °C; ΔTm at 10 µM (PHKG2; read-out: dTm 10): 1.3 °C; ΔTm at 10 µM (EphA7; read-out: dTm 10): 0.5 °C; ΔTm at 10 µM (HIPK2; read-out: dTm 10): 0.8 °C

**Q.** For `CNc1ncc2cc(-c3cc(Cl)ccc3Cl)c(=O)n(CCCCN)c2n1` [compound 8, 8-(4-Aminobutyl)-6-(2,5-dichlorophenyl)-2-(methylamino)pyrido[2,3-d]pyrimidin-7(8H)-one], which ΔTm at 10 µM (FLT1; read-out: dTm 8) is on record?
**A.** The ΔTm at 10 µM was 6 °C.

**Q.** And the ΔTm at 10 µM (BRAF; read-out: dTm 8)?
**A.** Its ΔTm at 10 µM is 10.8 °C.

**Q.** What about the ΔTm at 10 µM (MARK4; read-out: dTm 8) of the same compound?
**A.** The ΔTm at 10 µM was 1 °C.

**Q.** And the ΔTm at 10 µM (CaMK2d; read-out: dTm 8)?
**A.** Its ΔTm at 10 µM is 0.4 °C.

**Q.** And the ΔTm at 10 µM (CLK3; read-out: dTm 8)?
**A.** The ΔTm at 10 µM was 0.4 °C.

**Q.** And the ΔTm at 10 µM (PIM1; read-out: dTm 8)?
**A.** Its ΔTm at 10 µM is 0.8 °C.

**Q.** What about the ΔTm at 10 µM (PCTAIRE1; read-out: dTm 8) of the same compound?
**A.** The ΔTm at 10 µM was 0.7 °C.

**Q.** And the ΔTm at 10 µM (TAF1; read-out: dTm 8)?
**A.** The ΔTm at 10 µM was -0.7 °C.

**Q.** And the ΔTm at 10 µM (DAPK3; read-out: dTm 8)?
**A.** The ΔTm at 10 µM was -0.1 °C.

**Q.** And the ΔTm at 10 µM (PHKG2; read-out: dTm 8)?
**A.** Its ΔTm at 10 µM is 1.5 °C.

**Q.** What about the ΔTm at 10 µM (EphA7; read-out: dTm 8) of the same compound?
**A.** Its ΔTm at 10 µM is 0.5 °C.

**Q.** What about the ΔTm at 10 µM (HIPK2; read-out: dTm 8) of the same compound?
**A.** Its ΔTm at 10 µM is 0.7 °C.

**Q.** What does the source list for `CNc1ncc2cc(-c3cc(C(F)(F)F)ccc3Cl)c(=O)n(CCCCN)c2n1` [compound 9, 8-(4-Aminobutyl)-6-(2-chloro-5-(trifluoromethyl)phenyl)-2-(methylamino)pyrido[2,3-d]pyrimidin-7(8H)-one]?
**A.** ΔTm at 10 µM (FLT1; read-out: dTm 9): 5.3 °C; ΔTm at 10 µM (BRAF; read-out: dTm 9): 10.4 °C; ΔTm at 10 µM (MARK4; read-out: dTm 9): 0 °C; ΔTm at 10 µM (CaMK2d; read-out: dTm 9): 0.2 °C; ΔTm at 10 µM (CLK3; read-out: dTm 9): 0.4 °C; ΔTm at 10 µM (PIM1; read-out: dTm 9): 0.6 °C; ΔTm at 10 µM (PCTAIRE1; read-out: dTm 9): 0.2 °C; ΔTm at 10 µM (TAF1; read-out: dTm 9): -0.7 °C; ΔTm at 10 µM (DAPK3; read-out: dTm 9): -0.1 °C; ΔTm at 10 µM (PHKG2; read-out: dTm 9): 0.5 °C; ΔTm at 10 µM (EphA7; read-out: dTm 9): 0.6 °C; ΔTm at 10 µM (HIPK2; read-out: dTm 9): 0.7 °C

**Q.** `CNc1ncc2cc(-c3cc(Br)ccc3Br)c(=O)n(CCCCN)c2n1` [compound 11, 8-(4-Aminobutyl)-6-(2,5-dibromophenyl)-2-(methylamino)pyrido[2,3-d]pyrimidin-7(8H)-one] was tested. Which ΔTm at 10 µM (FLT1; read-out: dTm 11) did it give?
**A.** Its ΔTm at 10 µM is 5.8 °C.

**Q.** What about the ΔTm at 10 µM (BRAF; read-out: dTm 11) of the same compound?
**A.** Its ΔTm at 10 µM is 11.6 °C.

**Q.** What about the ΔTm at 10 µM (MARK4; read-out: dTm 11) of the same compound?
**A.** The ΔTm at 10 µM was 1.8 °C.

**Q.** What about the ΔTm at 10 µM (CaMK2d; read-out: dTm 11) of the same compound?
**A.** The ΔTm at 10 µM was 0.2 °C.

**Q.** What about the ΔTm at 10 µM (CLK3; read-out: dTm 11) of the same compound?
**A.** Its ΔTm at 10 µM is 0.4 °C.

**Q.** And the ΔTm at 10 µM (PIM1; read-out: dTm 11)?
**A.** Its ΔTm at 10 µM is 0.6 °C.

**Q.** And the ΔTm at 10 µM (PCTAIRE1; read-out: dTm 11)?
**A.** The ΔTm at 10 µM was 0.9 °C.

**Q.** What about the ΔTm at 10 µM (TAF1; read-out: dTm 11) of the same compound?
**A.** Its ΔTm at 10 µM is -0.8 °C.

**Q.** What about the ΔTm at 10 µM (DAPK3; read-out: dTm 11) of the same compound?
**A.** Its ΔTm at 10 µM is -0.2 °C.

**Q.** And the ΔTm at 10 µM (PHKG2; read-out: dTm 11)?
**A.** Its ΔTm at 10 µM is 0.6 °C.

**Q.** And the ΔTm at 10 µM (EphA7; read-out: dTm 11)?
**A.** The ΔTm at 10 µM was 0.6 °C.

**Q.** And the ΔTm at 10 µM (HIPK2; read-out: dTm 11)?
**A.** Its ΔTm at 10 µM is 0.8 °C.

**Q.** What does the source list for `CNc1ncc2cc(-c3cc(F)c(-c4cccc(C)n4)cc3F)c(=O)n(CCCCN)c2n1` [compound 12, 8-(4-Aminobutyl)-6-(2,5-difluoro-4-(6-methylpyridin-2-yl)phenyl)-2-(methylamino)pyrido[2,3-d]pyrimidin-7(8H)-one]?
**A.** ΔTm at 10 µM (FLT1; read-out: dTm 12): 2.8 °C; ΔTm at 10 µM (BRAF; read-out: dTm 12): 2.3 °C; ΔTm at 10 µM (MARK4; read-out: dTm 12): 4.5 °C; ΔTm at 10 µM (CaMK2d; read-out: dTm 12): -0.2 °C; ΔTm at 10 µM (CLK3; read-out: dTm 12): -0.3 °C; ΔTm at 10 µM (PIM1; read-out: dTm 12): 0.8 °C; ΔTm at 10 µM (PCTAIRE1; read-out: dTm 12): 1.3 °C; ΔTm at 10 µM (TAF1; read-out: dTm 12): 0.4 °C; ΔTm at 10 µM (DAPK3; read-out: dTm 12): 0.3 °C; ΔTm at 10 µM (PHKG2; read-out: dTm 12): 1.5 °C; ΔTm at 10 µM (EphA7; read-out: dTm 12): 2.3 °C; ΔTm at 10 µM (HIPK2; read-out: dTm 12): 0.4 °C
